In patent US8076487B2, “Pyridone derivative and herbicide” (Kumiai Chemical Industry Co., Ltd., priority 2006, dated 2011):

Key:
Type in all cases: in vivo
[1] = system: Japanese bulrush (Scirpus juncoides Roxb.); experiment: Test Example 1: herbicidal effect by soil application to paddy field; details: paddy field soil application; active ingredient 1,000 g per 1 hectare; wettable powder added dropwise to water surface the day after sowing; examined on the 21st day after application
Procedure, shortened: (§1)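 Under greenhouse conditions, seeds sown on puddled paddy soil in 100 cm2 pots under 3 cm of standing water received the test compound; injury was assessed with a standard scoring scheme three weeks (day 21) after treatment.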

[2] = system: early watergrass (Echinochloa oryzicola Vasing); experiment: as above; details: paddy field soil application; active ingredient 1,000 g per 1 hectare; wettable powder added dropwise to water surface the day after sowing; examined on the 21st day after application
Procedure, shortened: as §1

[3] = system: heartshape false pickerelweed (Monochoria vaginalis (Burm.f.) C.Presl); experiment: as above; details: paddy field soil application; active ingredient 1,000 g per 1 hectare; wettable powder added dropwise to water surface the day after sowing; examined on the 21st day after application
Procedure, shortened: as §1

[4] = system: barnyardgrass (Echinochloa crus-galli (L.) P. Beauv. var. crus-galli); experiment: Test Example 2: herbicidal effect by soil application to upland field; details: soil surface spray, upland field soil, 1,000 g active ingredient per hectare, 21st day after application
Procedure, shortened: (§2)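 Soil-applied wettable powder, 1,000 g a.i./ha, sprayed after sowing onto covered field soil. Effect rated on a standard scale 21 days later in a greenhouse.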

[5] = system: green foxtail (Setaria viridis (L.) P. Beauv.); experiment: as above; details: soil surface spray, upland field soil, 1,000 g active ingredient per hectare, 21st day after application
Procedure, shortened: as §2

[6] = system: slender amaranth (Amaranthus viridis L.); experiment: as above; details: soil surface spray, upland field soil, 1,000 g active ingredient per hectare, 21st day after application
Procedure, shortened: as §2

[7] = system: velvetleaf (Abutilon theophrasti medicus); experiment: as above; details: soil surface spray, upland field soil, 1,000 g active ingredient per hectare, 21st day after application
Procedure, shortened: as §2

[8] = system: barnyardgrass (Echinochloa crus-galli (L.) P. Beauv. var. crus-galli); experiment: Test Example 3: herbicidal effect by application to upland field (foliage treatment); details: 14th day after application; for herbicidal effect, Barnyardgrass: foliage treatment, 1,000 g active ingredient per 1 hectare, greenhouse; for herbicidal effect (index), Barnyardgrass: foliage treatment, plants grown two weeks, 1,000 g active ingredient per hectare
Procedure, shortened: (§3)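 Foliage treatment, greenhouse: 2-week-old plants in field soil; wettable powder in water sprayed over the top at 1,000 g a.i./ha (1,000 L/ha); rating on day 14 post-application.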

[9] = system: green foxtail (Setaria viridis (L.) P. Beauv.); experiment: as above; details: 14th day after application; for herbicidal effect, Green Foxtail: foliage treatment, 1,000 g active ingredient per 1 hectare, greenhouse; for herbicidal effect (index), Green Foxtail: foliage treatment, plants grown two weeks, 1,000 g active ingredient per hectare
Procedure, shortened: as §3

[10] = system: slender amaranth (Amaranthus viridis L.); experiment: as above; details: 14th day after application; for herbicidal effect, Slender Amaranth: foliage treatment, 1,000 g active ingredient per 1 hectare, greenhouse; for herbicidal effect (index), Slender Amaranth: foliage treatment, plants grown two weeks, 1,000 g active ingredient per hectare
Procedure, shortened: as §3

[11] = system: velvetleaf (Abutilon theophrasti medicus); experiment: as above; details: 14th day after application; for herbicidal effect, Velvetleaf: foliage treatment, 1,000 g active ingredient per 1 hectare, greenhouse; for herbicidal effect (index), Velvetleaf: foliage treatment, plants grown two weeks, 1,000 g active ingredient per hectare
Procedure, shortened: as §3

## N#Cc1ccc(C(=O)C2=C(O)CCCC2=O)c(=O)n1-c1ccccc1 [I-243]
[1]
  herbicidal effect, Scirpus juncoides Roxb.: 5 (90% or more of herbicidal effect and crop phytotoxicity)
[2]
  herbicidal effect, Echinochloa oryzicola Vasing: 5 (90% or more of herbicidal effect and crop phytotoxicity)
[3]
  herbicidal effect, Monochoria vaginalis (Burm. f.) C. Presl: 5 (90% or more of herbicidal effect and crop phytotoxicity)
[4]
  herbicidal effect (index), Barnyardgrass: 5 (90% or more of herbicidal effect and crop phytotoxicity)
[5]
  herbicidal effect (index), Green Foxtail: 5 (90% or more of herbicidal effect and crop phytotoxicity)
[6]
  herbicidal effect (index), Slender Amaranth: 5 (90% or more of herbicidal effect and crop phytotoxicity)
[7]
  herbicidal effect (index), Velvetleaf: 5 (90% or more of herbicidal effect and crop phytotoxicity)
[8]
  herbicidal effect, Barnyardgrass: 5 (90% or more of herbicidal effect and crop phytotoxicity)
[9]
  herbicidal effect, Green Foxtail: 5 (90% or more of herbicidal effect and crop phytotoxicity)
[10]
  herbicidal effect, Slender Amaranth: 5 (90% or more of herbicidal effect and crop phytotoxicity)
[11]
  herbicidal effect, Velvetleaf: 5 (90% or more of herbicidal effect and crop phytotoxicity)

## O=C1CCCC(O)=C1C(=O)c1ccc(C(F)(F)F)n(NCC2CC2)c1=O [I-164]
[1]
  herbicidal effect, Scirpus juncoides Roxb.: 5 (90% or more of herbicidal effect and crop phytotoxicity)
[2]
  herbicidal effect, Echinochloa oryzicola Vasing: 5 (90% or more of herbicidal effect and crop phytotoxicity)
[3]
  herbicidal effect, Monochoria vaginalis (Burm. f.) C. Presl: 5 (90% or more of herbicidal effect and crop phytotoxicity)
[4]
  herbicidal effect (index), Barnyardgrass: 5 (90% or more of herbicidal effect and crop phytotoxicity)
[5]
  herbicidal effect (index), Green Foxtail: 5 (90% or more of herbicidal effect and crop phytotoxicity)
[6]
  herbicidal effect (index), Slender Amaranth: 5 (90% or more of herbicidal effect and crop phytotoxicity)
[7]
  herbicidal effect (index), Velvetleaf: 5 (90% or more of herbicidal effect and crop phytotoxicity)
[8]
  herbicidal effect, Barnyardgrass: 5 (90% or more of herbicidal effect and crop phytotoxicity)
[9]
  herbicidal effect, Green Foxtail: 5 (90% or more of herbicidal effect and crop phytotoxicity)
[10]
  herbicidal effect, Slender Amaranth: 5 (90% or more of herbicidal effect and crop phytotoxicity)
[11]
  herbicidal effect, Velvetleaf: 5 (90% or more of herbicidal effect and crop phytotoxicity)

## O=C1CCCC(O)=C1C(=O)c1ccc(C(F)(F)F)n(CC(F)(F)F)c1=O [I-10]
[1]
  herbicidal effect, Scirpus juncoides Roxb.: 5 (90% or more of herbicidal effect and crop phytotoxicity)
[2]
  herbicidal effect, Echinochloa oryzicola Vasing: 5 (90% or more of herbicidal effect and crop phytotoxicity)
[3]
  herbicidal effect, Monochoria vaginalis (Burm. f.) C. Presl: 5 (90% or more of herbicidal effect and crop phytotoxicity)
[4]
  herbicidal effect (index), Barnyardgrass: 5 (90% or more of herbicidal effect and crop phytotoxicity)
[5]
  herbicidal effect (index), Green Foxtail: 3 (50 to less than 70% of herbicidal effect and crop phytotoxicity)
[6]
  herbicidal effect (index), Slender Amaranth: 3 (50 to less than 70% of herbicidal effect and crop phytotoxicity)
[7]
  herbicidal effect (index), Velvetleaf: 5 (90% or more of herbicidal effect and crop phytotoxicity)
[8]
  herbicidal effect (index), Barnyardgrass: 5 (90% or more of herbicidal effect and crop phytotoxicity)
[9]
  herbicidal effect (index), Green Foxtail: 4 (70 to less than 90% of herbicidal effect and crop phytotoxicity)
[10]
  herbicidal effect (index), Slender Amaranth: 5 (90% or more of herbicidal effect and crop phytotoxicity)
[11]
  herbicidal effect (index), Velvetleaf: 5 (90% or more of herbicidal effect and crop phytotoxicity)

## CSCn1c(C(F)(F)F)ccc(C(=O)C2=C(O)CCCC2=O)c1=O [I-46]
[1]
  herbicidal effect, Scirpus juncoides Roxb.: 5 (90% or more of herbicidal effect and crop phytotoxicity)
[2]
  herbicidal effect, Echinochloa oryzicola Vasing: 5 (90% or more of herbicidal effect and crop phytotoxicity)
[3]
  herbicidal effect, Monochoria vaginalis (Burm. f.) C. Presl: 5 (90% or more of herbicidal effect and crop phytotoxicity)
[4]
  herbicidal effect (index), Barnyardgrass: 5 (90% or more of herbicidal effect and crop phytotoxicity)
[5]
  herbicidal effect (index), Green Foxtail: 3 (50 to less than 70% of herbicidal effect and crop phytotoxicity)
[6]
  herbicidal effect (index), Slender Amaranth: 5 (90% or more of herbicidal effect and crop phytotoxicity)
[7]
  herbicidal effect (index), Velvetleaf: 5 (90% or more of herbicidal effect and crop phytotoxicity)
[8]
  herbicidal effect (index), Barnyardgrass: 5 (90% or more of herbicidal effect and crop phytotoxicity)
[9]
  herbicidal effect (index), Green Foxtail: 3 (50 to less than 70% of herbicidal effect and crop phytotoxicity)
[10]
  herbicidal effect (index), Slender Amaranth: 5 (90% or more of herbicidal effect and crop phytotoxicity)
[11]
  herbicidal effect (index), Velvetleaf: 5 (90% or more of herbicidal effect and crop phytotoxicity)

## CCCS(=O)(=O)Cn1c(C(F)(F)F)ccc(C(=O)C2=C(O)CCCC2=O)c1=O [I-51]
[1]
  herbicidal effect, Scirpus juncoides Roxb.: 5 (90% or more of herbicidal effect and crop phytotoxicity)
[2]
  herbicidal effect, Echinochloa oryzicola Vasing: 5 (90% or more of herbicidal effect and crop phytotoxicity)
[3]
  herbicidal effect, Monochoria vaginalis (Burm. f.) C. Presl: 5 (90% or more of herbicidal effect and crop phytotoxicity)
[4]
  herbicidal effect (index), Barnyardgrass: 5 (90% or more of herbicidal effect and crop phytotoxicity)
[5]
  herbicidal effect (index), Green Foxtail: 5 (90% or more of herbicidal effect and crop phytotoxicity)
[6]
  herbicidal effect (index), Slender Amaranth: 5 (90% or more of herbicidal effect and crop phytotoxicity)
[7]
  herbicidal effect (index), Velvetleaf: 5 (90% or more of herbicidal effect and crop phytotoxicity)
[8]
  herbicidal effect (index), Barnyardgrass: 5 (90% or more of herbicidal effect and crop phytotoxicity)
[9]
  herbicidal effect (index), Green Foxtail: 5 (90% or more of herbicidal effect and crop phytotoxicity)
[10]
  herbicidal effect (index), Slender Amaranth: 5 (90% or more of herbicidal effect and crop phytotoxicity)
[11]
  herbicidal effect (index), Velvetleaf: 5 (90% or more of herbicidal effect and crop phytotoxicity)

## CCCn1c(C(F)(F)F)ccc(C(=O)c2cnn(C)c2O)c1=O [IV-3]
[1]
  herbicidal effect, Scirpus juncoides Roxb.: 5 (90% or more of herbicidal effect and crop phytotoxicity)
[2]
  herbicidal effect, Echinochloa oryzicola Vasing: 5 (90% or more of herbicidal effect and crop phytotoxicity)
[3]
  herbicidal effect, Monochoria vaginalis (Burm. f.) C. Presl: 5 (90% or more of herbicidal effect and crop phytotoxicity)
[4]
  herbicidal effect (index), Barnyardgrass: 5 (90% or more of herbicidal effect and crop phytotoxicity)
[5]
  herbicidal effect (index), Green Foxtail: 5 (90% or more of herbicidal effect and crop phytotoxicity)
[6]
  herbicidal effect (index), Slender Amaranth: 5 (90% or more of herbicidal effect and crop phytotoxicity)
[7]
  herbicidal effect (index), Velvetleaf: 5 (90% or more of herbicidal effect and crop phytotoxicity)
[8]
  herbicidal effect, Barnyardgrass: 5 (90% or more of herbicidal effect and crop phytotoxicity)
[9]
  herbicidal effect, Green Foxtail: 5 (90% or more of herbicidal effect and crop phytotoxicity)
[10]
  herbicidal effect, Slender Amaranth: 5 (90% or more of herbicidal effect and crop phytotoxicity)
[11]
  herbicidal effect, Velvetleaf: 5 (90% or more of herbicidal effect and crop phytotoxicity)

## C[S+]([O-])CCCn1c(C(F)(F)F)ccc(C(=O)C2=C(O)C3CCC(C3)C2=O)c1=O (stereo not shown) [III-32]
[1]
  herbicidal effect, Scirpus juncoides Roxb.: 5 (90% or more of herbicidal effect and crop phytotoxicity)
[2]
  herbicidal effect, Echinochloa oryzicola Vasing: 5 (90% or more of herbicidal effect and crop phytotoxicity)
[3]
  herbicidal effect, Monochoria vaginalis (Burm. f.) C. Presl: 5 (90% or more of herbicidal effect and crop phytotoxicity)
[4]
  herbicidal effect (index), Barnyardgrass: 5 (90% or more of herbicidal effect and crop phytotoxicity)
[5]
  herbicidal effect (index), Green Foxtail: 5 (90% or more of herbicidal effect and crop phytotoxicity)
[6]
  herbicidal effect (index), Slender Amaranth: 5 (90% or more of herbicidal effect and crop phytotoxicity)
[7]
  herbicidal effect (index), Velvetleaf: 5 (90% or more of herbicidal effect and crop phytotoxicity)
[8]
  herbicidal effect, Barnyardgrass: 5 (90% or more of herbicidal effect and crop phytotoxicity)
[9]
  herbicidal effect, Green Foxtail: 5 (90% or more of herbicidal effect and crop phytotoxicity)
[10]
  herbicidal effect, Slender Amaranth: 5 (90% or more of herbicidal effect and crop phytotoxicity)
[11]
  herbicidal effect, Velvetleaf: 5 (90% or more of herbicidal effect and crop phytotoxicity)

## COCCCn1c(C(F)(F)F)ccc(C(=O)c2cnn(C)c2O)c1=O [IV-47]
[1]
  herbicidal effect, Scirpus juncoides Roxb.: 5 (90% or more of herbicidal effect and crop phytotoxicity)
[2]
  herbicidal effect, Echinochloa oryzicola Vasing: 5 (90% or more of herbicidal effect and crop phytotoxicity)
[3]
  herbicidal effect, Monochoria vaginalis (Burm. f.) C. Presl: 5 (90% or more of herbicidal effect and crop phytotoxicity)
[4]
  herbicidal effect (index), Barnyardgrass: 4 (70 to less than 90% of herbicidal effect and crop phytotoxicity)
[5]
  herbicidal effect (index), Green Foxtail: 5 (90% or more of herbicidal effect and crop phytotoxicity)
[6]
  herbicidal effect (index), Slender Amaranth: 5 (90% or more of herbicidal effect and crop phytotoxicity)
[7]
  herbicidal effect (index), Velvetleaf: 5 (90% or more of herbicidal effect and crop phytotoxicity)
[8]
  herbicidal effect, Barnyardgrass: 4 (70 to less than 90% of herbicidal effect and crop phytotoxicity)
[9]
  herbicidal effect, Green Foxtail: 5 (90% or more of herbicidal effect and crop phytotoxicity)
[10]
  herbicidal effect, Slender Amaranth: 5 (90% or more of herbicidal effect and crop phytotoxicity)
[11]
  herbicidal effect, Velvetleaf: 5 (90% or more of herbicidal effect and crop phytotoxicity)
